How the values were obtained:
[1] = tested on: MMP-9 (matrix metalloprotease type 9); assay: Gene expression of MMP-9, quantitative RT-PCR in NHEK; type: cell-based; settings: normal human keratinocytes (NHEK), 10^−5 M in 0.1% DMSO, 24 hours, mRNA by quantitative RT-PCR
Procedure: (§1) In these examples, the expression of messenger RNAs was measured via the technique of quantitative RT-PCR (reverse transcription followed by polymerase chain reaction), after in vitro incubation of the various cell types in the absence or presence of the test compounds.
(§2) This study was performed on normal human dermal fibroblasts (NHDF) or on normal human epidermal keratinocytes (NHEK), depending on the genes tested. The molecules were tested at 10^−5 M in aqueous 0.1% dimethyl sulfoxide (DMSO) solution.
(§3) The cells were cultured at a concentration of 10,000 cells per well of 96-well plates, in the presence of standard culture medium as a function of the cell type.
(§4) The compounds were then added at the test concentration, for 24 hours.
(§5) The supernatant was removed and the cells were taken up in a specific buffer for extraction of the messenger RNAs (mRNA). The mRNAs were purified and reverse-transcribed in the presence of a commercial reverse transcriptase.
(§6) The complementary DNAs (cDNA) obtained were used in a real-time quantitative PCR experiment, by means of suitable primers. The degree of expression of the mRNAs was normalized with five reference genes.
The cells used for this example were normal human keratinocytes (NHEK).
The contact with the test compounds was carried out for 24 hours.

sirtuin-5 = assay: Expression of the gene coding for sirtuin-5, quantitative RT-PCR in NHDF; type: cell-based; settings: normal human fibroblasts (NHDF), 10^−5 M in 0.1% DMSO, 24 hours, mRNA by quantitative RT-PCR
Procedure: In these examples, the expression of messenger RNAs was measured via the technique of quantitative RT-PCR (reverse transcription followed by polymerase chain reaction), after in vitro incubation of the various cell types in the absence or presence of the test compounds. This study was performed on normal human dermal fibroblasts (NHDF) or on normal human epidermal keratinocytes (NHEK), depending on the genes tested. The molecules were tested at 10^−5 M in aqueous 0.1% dimethyl sulfoxide (DMSO) solution. The cells were cultured at a concentration of 10,000 cells per well of 96-well plates, in the presence of standard culture medium as a function of the cell type. The compounds were then added at the test concentration, for 24 hours. The supernatant was removed and the cells were taken up in a specific buffer for extraction of the messenger RNAs (mRNA). The mRNAs were purified and reverse-transcribed in the presence of a commercial reverse transcriptase. The complementary DNAs (cDNA) obtained were used in a real-time quantitative PCR experiment, by means of suitable primers. The degree of expression of the mRNAs was normalized with five reference genes. The cells used for this example are normal human fibroblasts (NHDF). The contact with the test compounds was carried out for 24 hours. The results obtained, in terms of expression of sirtuin-5 (coded for by the gene of Genbank accession number: NC—000006.11) relative to the basal level (absence of compound) taken to 100%, are shown in Table 5 below.

EPPK1 (Epiplakin 1) = assay: Expression of cell differentiation and adhesion gene EPPK1, RT-PCR in NHEK; type: cell-based, human; settings: 10^−5 M, 24 hours, quantitative RT-PCR
Procedure: as §1, §2, §3, §4, §5, §6
(§7) The cells used for this example are normal human keratinocytes (NHEK).
(§8) The contact with the test compounds was carried out for 24 hours. […]

EVPL (Envoplakin) = assay: Expression of cell differentiation and adhesion gene EVPL, RT-PCR in NHEK; type: cell-based, human; settings: 10^−5 M, 24 hours, quantitative RT-PCR
Procedure: as §1, §2, §3, §4, §5, §6, §7, §8

[2] = tested on: TGM1 (Transglutaminase 1); assay: Expression of cell differentiation and adhesion gene TGM1, RT-PCR in NHEK; type: cell-based, human; settings: 10^−5 M, 24 hours, quantitative RT-PCR
Procedure: as §1, §2, §3, §4, §5, §6, §7, §8

[3] = tested on: SPINK5 (Serine peptidase Kazal type 5); assay: Expression of cell differentiation and adhesion gene SPINK5, RT-PCR in NHEK; type: cell-based, human; settings: 10^−5 M, 24 hours, quantitative RT-PCR
Procedure: as §1, §2, §3, §4, §5, §6, §7, §8

AQP3 (Aquaporin 3) = assay: Expression of cell differentiation and adhesion gene AQP3, RT-PCR in NHEK; type: cell-based, human; settings: 10^−5 M, 24 hours, quantitative RT-PCR
Procedure: as §1, §2, §3, §4, §5, §6, §7, §8

CRNN (Cornulin) = assay: Expression of cell differentiation and adhesion gene CRNN, RT-PCR in NHEK; type: cell-based, human; settings: 10^−5 M, 24 hours, quantitative RT-PCR
Procedure: as §1, §2, §3, §4, §5, §6, §7, §8

KRT1 (Keratin 1) = assay: Expression of cell differentiation and adhesion gene KRT1, RT-PCR in NHEK; type: cell-based, human; settings: 10^−5 M, 24 hours, quantitative RT-PCR
Procedure: as §1, §2, §3, §4, §5, §6, §7, §8

COL1A11 (Collagen 1) = assay: Expression of extracellular matrix gene Collagen 1, RT-PCR in NHDF; type: cell-based, human; settings: 10^−5 M, 24 hours, quantitative RT-PCR
Procedure: as §1, §2, §3, §4, §5, §6
(§9) The cells used for this example are normal human fibroblasts (NHDF).
as §8

COL3A1 (Collagen 3) = assay: Expression of extracellular matrix gene Collagen 3, RT-PCR in NHDF; type: cell-based, human; settings: 10^−5 M, 24 hours, quantitative RT-PCR
Procedure: as §1, §2, §3, §4, §5, §6, §9, §8

COL5A1 (Collagen 5) = assay: Expression of extracellular matrix gene Collagen 5, RT-PCR in NHDF; type: cell-based, human; settings: 10^−5 M, 24 hours, quantitative RT-PCR
Procedure: as §1, §2, §3, §4, §5, §6, §9, §8

ELN (Elastin) = assay: Expression of extracellular matrix gene Elastin, RT-PCR in NHDF; type: cell-based, human; settings: 10^−5 M, 24 hours, quantitative RT-PCR
Procedure: as §1, §2, §3, §4, §5, §6, §9, §8

LAMA5 (Laminin alpha 5) = assay: Expression of extracellular matrix gene Laminin alpha 5, RT-PCR in NHDF; type: cell-based, human; settings: 10^−5 M, 24 hours, quantitative RT-PCR
Procedure: as §1, §2, §3, §4, §5, §6, §9, §8

[4] = tested on: HAS3 (Hyaluronan synthase 3); assay: Expression of extracellular matrix gene Hyaluronan synthase 3, RT-PCR in NHDF; type: cell-based, human; settings: 10^−5 M, 24 hours, quantitative RT-PCR
Procedure: as §1, §2, §3, §4, §5, §6, §9, §8

SPARC (Osteonectin) = assay: Expression of extracellular matrix gene SPARC, RT-PCR in NHDF; type: cell-based, human; settings: 10^−5 M, 24 hours, quantitative RT-PCR
Procedure: as §1, §2, §3, §4, §5, §6, §9, §8

Collagen 1 = assay: Expression of Collagen 1 at the protein level by immunofluorescence in NHDF; type: cell-based, human; settings: 10 ppm in 0.1% DMSO, 24 hours, FIG. 1
Procedure: In this example, the expression of Collagen 1 was measured at the protein level via the immunofluorescence technique, after in vitro incubation of the cells in the absence or presence of the test compounds, at a concentration of 10 ppm in aqueous 0.1% DMSO solution.
The compound in accordance with the invention of formula (IIa) and the comparative compounds Comp.1 and Comp.2, of respective formula (IV) and (V), were tested.
TGFβ was used as positive control, at a concentration of 10 ng/ml in an aqueous solution. An untreated control was also realized.
This study was performed on normal human dermal fibroblasts (NHDF).
The cells were cultured at a concentration of 4000 cells per well in 96-well plates, in the presence of standard culture medium.
The compounds were then added at the test concentration, identical for all, for 24 hours.
The supernatant was removed and the cells were prepared for the fluorescent labeling. The cells were fixed in the presence of 3.7% formaldehyde, and then permeabilized in a buffer containing 1% Triton®, and finally the cells were rinsed and incubated in the presence of an anti-Collagen1 monoclonal antibody (Abcam) for one hour 30 minutes. After washing, the cells were incubated in the presence of the secondary antibody (Alexa GAM488, Invitrogen) for 1 hour. […]
The fluorescence was then quantified using an automated microscope (ArrayScan®, Cellomics®). […]

protein Klotho (KL) = assay: Expression of the gene coding for the protein Klotho (KL), quantitative RT-PCR in NHDF; type: cell-based; settings: normal human fibroblasts (NHDF), 10^−5 M in 0.1% DMSO, 24 hours, mRNA by quantitative RT-PCR
Procedure: as §1, §2, §3, §4, §5, §6, §9, §8

Question: Which “Decrease of expression of MMP-9 relative to the basal level taken to 100%” value [1] does the source give for `COc1ccc2[nH]cc(CCNC(=O)/C=C/c3ccc(O)c(O)c3)c2c1` [(IIa), (2E)-3-(3,4-Dihydroxyphenyl)-N-[2-(5-methoxy-1H-indol-3-yl)ethyl]-2-propenamide] here?
Answer: Its value is −67%.

Question: What about the “Expression of sirtuin-5 relative to the basal level taken to 100%” value (sirtuin-5) of the same molecule?
Answer: The value was 153%.

Question: And the “Gene expression relative to the basal level taken to 100%: EPPK1 (Epiplakin 1)” value (EPPK1 (Epiplakin 1))?
Answer: Its value is 177%.

Question: And the “Gene expression relative to the basal level taken to 100%: EVPL (Envoplakin)” value (EVPL (Envoplakin))?
Answer: Its value is 166%.

Question: And the “Gene expression relative to the basal level taken to 100%: TGM1 (Transglutaminase 1)” value [2]?
Answer: Its value is 183%.

Question: What about the “Gene expression relative to the basal level taken to 100%: SPINK5 (Serine peptidase Kazal type 5)” value [3] of the same molecule?
Answer: The value was 173%.

Question: What about the “Gene expression relative to the basal level taken to 100%: AQP3 (Aquaporin 3)” value (AQP3 (Aquaporin 3)) of the same molecule?
Answer: Its value is 228%.

Question: And the “Gene expression relative to the basal level taken to 100%: CRNN (Cornulin)” value (CRNN (Cornulin))?
Answer: Its value is 261%.

Question: What about the “Gene expression relative to the basal level taken to 100%: KRT1 (Keratin 1)” value (KRT1 (Keratin 1)) of the same molecule?
Answer: The value was 142%.

Question: And the “Gene expression relative to the basal level taken to 100%: COL1A11 (Collagen 1)” value (COL1A11 (Collagen 1))?
Answer: Its value is 133%.

Question: What about the “Gene expression relative to the basal level taken to 100%: COL3A1 (Collagen 3)” value (COL3A1 (Collagen 3)) of the same molecule?
Answer: Its value is 125%.

Question: And the “Gene expression relative to the basal level taken to 100%: COL5A1 (Collagen 5)” value (COL5A1 (Collagen 5))?
Answer: Its value is 144%.

Question: What about the “Gene expression relative to the basal level taken to 100%: ELN (Elastin)” value (ELN (Elastin)) of the same molecule?
Answer: Its value is 136%.

Question: What about the “Gene expression relative to the basal level taken to 100%: LAMA5 (Laminin alpha 5)” value (LAMA5 (Laminin alpha 5)) of the same molecule?
Answer: The value was 141%.

Question: And the “Gene expression relative to the basal level taken to 100%: HAS3 (Hyaluronan synthase 3)” value [4]?
Answer: Its value is 144%.

Question: What about the “Gene expression relative to the basal level taken to 100%: SPARC (Osteonectin)” value (SPARC (Osteonectin)) of the same molecule?
Answer: Its value is 118%.

Question: What about the “Expression (production) of Collagen 1 relative to the basal level (control) taken to 100%” value (Collagen 1) of the same molecule?
Answer: The value was “substantially stimulates the production of collagen 1 by the cells, as much as the positive control (TGFβ)”.

Question: What does the source list for `COc1ccc2[nH]cc(CCNC(=O)/C=C/c3ccc(O)cc3)c2c1` [(IIb)]?
Answer: Expression of sirtuin-5 relative to the basal level taken to 100% (sirtuin-5): 125%; Expression of the protein Klotho relative to the basal level taken to 100% (protein Klotho (KL)): +144%

Question: Which “Decrease of expression of MMP-9 relative to the basal level taken to 100%” value [1] does the source give for `COc1ccc2[nH]cc(CCNC(=O)c3ccc(O)cc3O)c2c1` [(IIc)] here?
Answer: Its value is −56%.

Question: For `COc1cc(/C=C/C(=O)NCCc2c[nH]c3ccc(O)cc23)ccc1O` [(IId)], which “Decrease of expression of MMP-9 relative to the basal level taken to 100%” value [1] is on record?
Answer: Its value is −47%.

Question: Which results are given for `O=C(NCCc1c[nH]c2ccc(O)cc12)c1ccc(O)c(O)c1` [(IIe)]?
Answer: Decrease of expression of MMP-9 relative to the basal level taken to 100% [1]: −81%; Expression of sirtuin-5 relative to the basal level taken to 100% (sirtuin-5): 146%

Question: What does the source list for `O=C(/C=C/c1ccc(O)c(O)c1)NCCc1c[nH]c2ccc(O)cc12` [(IIf)]?
Answer: Decrease of expression of MMP-9 relative to the basal level taken to 100% [1]: −63%; Expression of sirtuin-5 relative to the basal level taken to 100% (sirtuin-5): 140%

Question: How did the “Expression (production) of Collagen 1 relative to the basal level (control) taken to 100%” value (Collagen 1) turn out when `O=C(NCCc1c[nH]c2ccccc12)c1ccc(O)cc1` [Comp.2, 4-hydroxy-N-[2-(1H-indol-3-yl)ethyl]benzamide, reference compound] was run?
Answer: The value was “do not stimulate, or only very sparingly stimulate”.

— patent US20150031740A1, “COSMETIC COMPOSITION FOR STIMULATING THE CELLULAR ANTI-AGING FUNCTIONS OF THE SKIN” (SYNTIVIA, priority 2011, published 2015)
